ChEMBL document CHEMBL2406904, “Mitigation of cardiovascular toxicity in a series of CSF-1R inhibitors, and the identification of AZD7507” (Bioorg Med Chem Lett, 2013)

Assays:
Assay type in all cases: ADME, organism-based
[1] = Volume of distribution at steady state in rat at 10 mg/kg, po and 3 mg/kg, iv; conditions: in vivo, read-out: Vdss
[2] = Oral bioavailability in rat at 10 mg/kg; conditions: in vivo
[3] = Half life in rat at 10 mg/kg, po and 3 mg/kg, iv; conditions: in vivo
[4] = Clearance in rat at 10 mg/kg, po; parameters: dose 10 mg/kg, route oral; conditions: in vivo

Vd [1] [L/kg]	bioavailability [2] [%]	half-life [3] [h]	CL/F [4] [mL/min/kg]	SMILES
1.7	3	1.5	22	COc1cc2nnc(C(N)=O)c(Nc3ccc(C)cc3F)c2cc1N1CCN(S(C)(=O)=O)CC1
3.8	100	2.5	17	COc1cc2nnc(C(N)=O)c(Nc3ccc(C)cc3F)c2cc1N1CCN(C(C)C)CC1
3.8	100	5.7	12	COc1cc2nnc(C(N)=O)c(Nc3ccc(C)cc3F)c2cc1N1CCN(C)CC1
2.2	15	0.9	34	COc1cc2nnc(C(N)=O)c(Nc3ccc(C)cc3F)c2cc1N1CCC(N(C)C)CC1
1.6	61	4.4	4	COc1cc2nnc(C(N)=O)c(Nc3ccc(C)cc3F)c2cc1N1C[C@@H](C)N[C@@H](C)C1
2.2	42	3.1	7	COc1cc2nnc(C(N)=O)c(Nc3ccc(C)cc3F)c2cc1N1CCN(CCO)CC1
2.2	4	0.9	66	COc1cc2nnc(C(N)=O)c(Nc3ccc(C)cc3F)c2cc1N1CCCN(CCO)CC1
4.3	3	7.6	21	COCCN1CCN(c2cc3c(Nc4ccc(C)cc4F)c(C(N)=O)nnc3cc2OC)CC1
1.8	21	0.6	58	COc1cc2nnc(C(N)=O)c(Nc3ccc(C)cc3F)c2cc1N1CCC(OC)CC1
3.1	100	6.1	8	COc1cc2nnc(C(N)=O)c(Nc3ccc(C)cc3F)c2cc1C1CCN(CCO)CC1
1.3	53	0.9	24	COc1cc2nnc(C(N)=O)c(Nc3ccc(C)cc3F)c2cc1N1CCN(C(=O)[C@@H](C)O)CC1
1.7	25	0.5	60	COc1cc2nnc(C(N)=O)c(Nc3ccc(C)cc3F)c2cc1N1CCOCC1
2.6	100	3.5	14	COc1cc2nnc(C(N)=O)c(Nc3ccc(C)cc3F)c2cc1C1CCN(C(C)C)CC1
